Like-named read-outs stand apart in the source and are kept apart here.
Legend:
VIM-2 = VIM-2 (Escherichia coli, UniProt Q5U7L7); test: Enzymatic metallo-β-lactamase assay on purified VIM-2; type: biochemical; conditions: for Ki: approximated from Dixon plots (1/v vs [I]) at one constant substrate concentration, ± SE, read-out: Estimated inhibition constant Ki VIM-2; for logIC50 VIM-2: log of IC50, ± SEM of logIC50; for IC50: purified enzyme 1 nM, nitrocefin 15 μM, pH 7.2, 25 °C
Experimental: (§1) A few inhibitors were tested up to 1600 μM to ensure nearly complete inhibition. Solutions of 100 μL consisting of buffer, purified enzyme (1 nM for GIM-1 and VIM-2, 5 nM for NDM-1), inhibitor and reporter substrate nitrocefin (15 μM for VIM-2, 2 μM for GIM-1) or imipenem (30 μM for NDM-1) were incubated in triplicates on a 96 well plate for 5 min at 25 °C. Buffer solution consisted of 50 mM HEPES pH 7.2, 50 μM ZnSO4 and 0.4 mg/ml bovine serum albumine. Inhibitors were dissolved in DMSO but diluted to assure <2% DMSO in measured assay. Absorbance was measured at 482 nm (nitrocefin) and 300 nm (imipenem) on a SpectraMax M4 spectrophotometer. The initial velocity at each inhibitor concentration was analyzed in GraphPad Prism v9.3.1 and fitted to dose-response curves by non-linear regression (log [inhibitor] vs response) used to calculate IC50 (Supplementary Tables S2–5).

GIM-1 [1] = target: T1, GIM-1 (Pseudomonas aeruginosa, UniProt Q704V1); test: Enzymatic metallo-β-lactamase assay on purified GIM-1; type: biochemical; conditions: for logIC50 GIM-1: log of IC50, ± SEM of logIC50; for IC50: purified enzyme 1 nM, nitrocefin 2 μM, pH 7.2, 25 °C
Experimental: as §1

NDM-1 = NDM-1 (Klebsiella pneumoniae, UniProt C7C422); test: Enzymatic metallo-β-lactamase assay on purified NDM-1; type: biochemical; conditions: for Ki: approximated from Dixon plots (1/v vs [I]) at one constant substrate concentration, ± SE, read-out: Estimated inhibition constant Ki NDM-1; for logIC50 NDM-1: log of IC50, ± SEM of logIC50; for IC50: purified enzyme 5 nM, imipenem 30 μM, pH 7.2, 25 °C
Experimental: as §1

MTT cytotoxicity assay = type: cell-based; conditions: human, HepG2 cells
Experimental: Cytotoxic activity of the compounds was measured through the MTT colorimetric assay as previously described[60] using the Colorimetric (MTT) Kit for Cell Survival and Proliferation (Merck/Millipore; Darmstadt, Germany). HepG2 cells (human hepatocellular carcinoma cell line) were kept in penicillin/streptomycin-free medium overnight and then they were treated with the compounds for 24 h. Subsequently, the MTT reagent was added to the cells and after 3 h of incubation, MTT-derived formazan crystals were solubilized in acidified isopropanol (0.1 mL isopropanol with 0.04 N HCl). Absorbance was measured with multiscan spectrophotometer (Thermo Fisher Scientific) at 530 nm test and 630 nm reference wavelengths. Cell viability was expressed as the percentage of viable, untreated cells. CC50 values were determined with GraphPad Prism software (v9.3.1) and adjusted to dose-response curves by non-linear regression (Supplementary Table S7).
8. Cytotoxocity against HepG2 cells
Table S7. CC50 values and viability curves of metallo-β-lactamase inhibitors tested on HepG2 […]
cells. […]
range. Data are shown as % via bility values ± SEM (n=4). Calculations were done using […]
Inhibitors CC50 (μM) HepG2 […]

[2] = Long term stability in buffer with 2.5% DMSO (LC-MS); type: physicochemical; conditions: 20 mM KPO4, 0.1 mM ZnCl2, pH 7.0 + 2.5% DMSO; LC-MS 254 nm
Source text: Reagents, reactants, solvents and drying agents for synthesis, work-up and purification were purchased from commercial vendors (Sigma-Aldrich, VWR, Merck, Fluorochem, Thermo Fisher Scientific, Solveco), and if not stated otherwise they were used without further purification. Reactions and long term stability of the final compounds in buffer were monitored using LC-MS (Agilent 1260 Infinity II) equipped with an ESI-Q detector (Infinitylab LC-MSD) using Agilent InfinityLab Poroshell 120 C18 columns (2.7 μm, ϕ 2.1 mm L 50 mm or 2.7 μm, ϕ 4.6 mm L 50 mm). The intermediates were purified using VWR silica gel 60 (40–63 μm) with a Biotage Isolera One flash column chromatography instrument. The final products were purified with preparative RP-HPLC (VWR LaPrep P110) with single wavelength detection (254 nm), using a Kinetex C8 column (5 μm, 100 Å, ϕ 21.2 mm L 250 mm) and gradients of CH3CN/H2O + 0.1% formic acid as the mobile phase at a 10 mL/min flow rate. Analytical HPLC data were acquired on a VWR LaChrome ELITE system using an ACE3 C8 (3 μm, 300 Å, ϕ 3.0 mm L 100 mm) or a Kinetex C18 columns (5 μm, 100 Å, ϕ 3.0 mm L 150 mm). NMR spectra were recorded on a Varian Agilent MR400-DD2 400 MHz spectrometer equipped with a OneNMR probe, Bruker Avance Neo 500 MHz spectrometer equipped with a cryogenic TXO probe, or a Bruker Avance Neo 600 MHz spectrometer equipped with a TCI cryogenic probe. The chemical shifts are reported using the residual solvent signal as an indirect reference to TMS.
4. Long term stability of the final compounds in buffer with 2.5% DMSO
The long term stability of the final compounds in buffer (20 mM KPO4, 0.1 mM ZnCl2, pH 7.0 + 2.5% DMSO) were monitored using LC-MS (Agilent 1260 Infinity II) equipped with an ESI-Q detector (Infinitylab LC-MSD) using Agilent InfinityLab Poroshell 120 C18 column (2.7 μm, ϕ 4.6 mm L 50 mm) at 254 nm with a 7 min long gradient method (5% to 95% CH3CN) of CH3CN/H2O + 0.1% formic acid as the mobile phase at a 1.0 mL/min flow rate. The samples were measured right after dissolving them in buffer, and after 1 month of keeping the same samples dissolved in the same buffer. The main peaks (> 95%) and impurities with > 1% are […]
Figure S14. Compound 5a right after dissolving it in buffer.
Figure S15. Compound 5a kept in buffer for 1 month. […]

15N-labelled VIM-2 = target: T2, 15N-labelled VIM-2 (Escherichia coli, UniProt Q5U7L7); test: 1H,15N-HSQC titration of VIM-2; type: binding; conditions: 10 equivalents of compound, 600 MHz, pH 7.0, 25 °C
T2 construct: made in house
Experimental: The ^1H, ^15N-HSQC spectra for the titration experiments were recorded on a Bruker Avance Neo 600 MHz spectrometer equipped with a 5 mm TCI cryogenic probe at 25 °C. The U-[^15N]-labeled VIM-2 was prepared in a buffer of 20 mM KPO4, 0.1 mM ZnCl2, at pH 7.0, containing 85% H2O/15% D2O at a concentration of 0.25 mM. The U-[^15N]-labeled NDM-1 was used in a buffer of 20 mM HEPES, 0.1 mM ZnCl2, at pH 7.0, containing 85% H2O/15% D2O at a concentration of 0.25 mM. The ligands 5d, 5g, 5i, 5j (for VIM-2 titrations) and 5 f (for NDM-1 titration) were dissolved in the same buffer as the corresponding enzymes. Spectra were recorded using solvent suppression, 1024 points in f1, 16 transients, 512 increments in f2 and a relaxation delay of 0.2 s. The titrations were carried out with 0, 0.25, 0.50, 1.00, 1.50, 2.25, 3.00, 4.00, 5.00, 7.00, 10.0 equivalents of the inhibitors.
Figure S47. Superimposition of the 1H,15N-HSQC spectrum (600 MHz, pH 7.0, 25 °C) of
VIM-2 in the absence (blue) and in the presence (green) of 10 molar equivalent of compound
5j. Buffer: 20 mM KPO4, 0.1 mM ZnCl2, with 15% D2O.
Chemical shift perturbation values (CSP, ΔδNH) were calculated as the weighted average of
the chemical shift changes in f1 (ΔδN) and f2 (ΔδH) dimensions using the following equation 8:
∆δ = √∆δ 2 + ( N ); R = 6.5
Figure S48. Linear regression of the chemical shift perturbations of compound 5g (IC50 =
12 μM) as a function of the chemical shift perturbations of compounds 5c (yellow circle), 5d
(grey square), 5i (green triangle) and 5j (blue circle) for VIM-2. The data of the studied […]

GIM-1 [3] = target: T1, GIM-1; test: Enzymatic metallo-β-lactamase assay on purified GIM-1; type: biochemical; conditions: approximated from Dixon plots (1/v vs [I]) at one constant substrate concentration; ± SE; read-out: Estimated inhibition constant Ki GIM-1
[4] = HepG2, MTT, read-out: CC50 (in viability curve)
[5] = MTT, 0.0025 mM - 1mM concentration range, read-out: Cytotoxicity CC50 HepG2

T1 sequence (Q704V1 entry or part of it): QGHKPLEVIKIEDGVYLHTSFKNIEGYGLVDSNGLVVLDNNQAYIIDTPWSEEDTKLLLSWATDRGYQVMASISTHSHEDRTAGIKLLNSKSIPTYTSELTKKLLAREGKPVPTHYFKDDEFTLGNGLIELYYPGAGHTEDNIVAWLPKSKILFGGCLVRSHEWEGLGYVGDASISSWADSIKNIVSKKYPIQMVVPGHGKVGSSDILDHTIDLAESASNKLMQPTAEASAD
Chain of NDM-1 (C7C422 29-270, looked up, species assumed): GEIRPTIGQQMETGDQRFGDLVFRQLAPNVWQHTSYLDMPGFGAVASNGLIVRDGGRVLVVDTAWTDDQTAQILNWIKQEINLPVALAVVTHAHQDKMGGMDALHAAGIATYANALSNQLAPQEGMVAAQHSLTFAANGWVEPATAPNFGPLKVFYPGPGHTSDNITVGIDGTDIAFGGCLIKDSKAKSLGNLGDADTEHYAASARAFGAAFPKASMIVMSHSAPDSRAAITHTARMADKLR

| Ki (VIM-2) | logIC50 VIM-2 (VIM-2) | IC50 (VIM-2) | logIC50 GIM-1 (GIM-1 [1]) | IC50 (GIM-1 [1]) | Ki (NDM-1) | logIC50 NDM-1 (NDM-1) | IC50 (NDM-1) | main peak Area% kept in buffer for 1 month [2] | main peak Area% right after dissolving in buffer [2] | Ki (GIM-1 [3]) | Structure (SMILES) | CC50 at 24 h (MTT cytotoxicity assay; [4]) | CC50 at 24 h (MTT cytotoxicity assay; [5]) | Mean chemical shift perturbation, VIM-2 (15N-labelled VIM-2) |
| --- | --- | --- | --- | --- | --- | --- | --- | --- | --- | --- | --- | --- | --- | --- |
| 74 ± 7 µM | 1.87 ± 0.35 μM | 74 µM | 2.08 ± 0.53 μM | 121 µM |  |  |  |  | 96.96% | 213 ± 22 µM | O=C(Cc1ccccc1)NC(c1ccccc1O)P(=O)(O)O (centres unmarked) [5m] | > 1000 µM | > 1000 µM |  |
| 119 ± 13 µM | 1.71 ± 0.07 μM | 51 µM | 1.90 ± 0.08 μM | 80 µM | 262 ± 41 µM | 1.81 ± 0.11 log10(IC50/μM) | 65 µM | 98.27% | 98.10% | 189 ± 76 µM | O=C(Cc1cc2ccccc2s1)NC(c1ccccc1O)P(=O)(O)O (centres unmarked) [5k] | 5600 µM | 5610 µM |  |
| 112 ± 11 µM | 2.10 ± 0.08 μM | 124 µM | 2.37 ± 0.21 μM | 236 µM | 451 ± 57 µM | 1.99 ± 0.13 log10(IC50/μM) | 97 µM | 95.03% | 95.46% | 162 ± 21 µM | O=C(NC(c1ccccc1O)P(=O)(O)O)c1ccsc1 (centres unmarked) [5b] | 1800 µM | 1830 µM |  |
| 39 ± 5 µM | 1.42 ± 0.18 μM | 26 µM | 1.71 ± 0.07 μM | 51 µM | 411 ± 160 µM | 1.83 ± 0.05 log10(IC50/μM) | 67 µM | 98.10% | 98.54% | 193 ± 41 µM | O=C(Cc1csc2ccccc12)NC(c1ccccc1O)P(=O)(O)O (centres unmarked) [5l] | 3900 µM | 3910 µM |  |
| 85 ± 12 µM | 1.74 ± 0.05 μM | 55 µM | 1.54 ± 0.13 μM | 35 µM | 363 ± 86 µM | 1.93 ± 0.09 log10(IC50/μM) | 85 µM | 95.39% | 95.97% | 118 ± 20 µM | O=C(NC(c1ccccc1O)P(=O)(O)O)c1ccccc1 (centres unmarked) [5h] | > 1000 µM | > 1000 µM |  |
| 36 ± 6 µM | 1.85 ± 0.07 μM | 71 µM | 1.30 ± 0.08 μM | 20 µM | 617 ± 95 µM | 2.34 ± 0.09 log10(IC50/μM) | 217 µM | 95.67% | 95.87% | 144 ± 36 µM | O=C(NC(c1ccccc1O)P(=O)(O)O)c1cccs1 (centres unmarked) [5a] | 4500 µM | 4550 µM |  |
| 72 ± 7 µM | 1.90 ± 0.11 μM | 79 µM | 1.73 ± 0.12 μM | 53 µM |  |  |  | 98.87% | 98.53% | 76 ± 5 µM | O=C(NC(c1ccccc1O)P(=O)(O)O)c1cc2c(s1)CCCC2 (centres unmarked) [5e] | > 1000 µM | > 1000 µM |  |

| Structure (SMILES) | Ki (VIM-2) | logIC50 VIM-2 (VIM-2) | IC50 (VIM-2) | logIC50 GIM-1 (GIM-1 [1]) | IC50 (GIM-1 [1]) | Ki (NDM-1) | logIC50 NDM-1 (NDM-1) | IC50 (NDM-1) | main peak Area% kept in buffer for 1 month [2] | main peak Area% right after dissolving in buffer [2] | Ki (GIM-1 [3]) | CC50 at 24 h (MTT cytotoxicity assay; [4]) | CC50 at 24 h (MTT cytotoxicity assay; [5]) | Mean chemical shift perturbation, VIM-2 (15N-labelled VIM-2) |
| --- | --- | --- | --- | --- | --- | --- | --- | --- | --- | --- | --- | --- | --- | --- |
| O=C(Cc1ccsc1)NC(c1ccccc1O)P(=O)(O)O (centres unmarked) [5j] | 88 ± 16 µM | 1.57 ± 0.03 μM | 37 µM | 2.01 ± 0.06 μM | 103 µM | 196 ± 13 µM | 2.37 ± 0.07 log10(IC50/μM) | 232 µM | 96.88% | 95.28% |  | 4000 µM | 3970 µM | 0.04 ppm |
| O=C(NC(c1ccccc1O)P(=O)(O)O)c1cc2ccccc2s1 (centres unmarked) [5c] | 71 ± 6 µM | 2.01 ± 0.05 μM | 103 µM | 2.01 ± 0.09 μM | 101 µM |  |  |  | 97.59% | 97.20% | 102 ± 10 µM | 2900 µM | 2930 µM | 0.05 ppm |
| O=C(NC(c1ccccc1O)P(=O)(O)O)c1csc2ccccc12 (centres unmarked) [5d] | 31 ± 5 µM | 1.33 ± 0.03 μM | 21 µM | 1.01 ± 0.19 μM | 10 µM |  |  |  | 97.15% | 97.92% | 64 ± 13 µM | 4400 µM | 4440 µM | 0.04 ppm |

From PMC12009420, “Dynamically chiral phosphonic acid-type metallo-β-lactamase inhibitors” (Communications Chemistry, 2025)
